Results as given in US11911361B2, “Stable cannabinoid formulations” (priority 2014, dated 2024).

Legend:
clinical = conditions: human, in vivo, po, 20 mg/kg, single 20 mg/kg oral dose of cannabidiol solution, mean; for CL/F / Vd/F: cannabidiol; for half-life: t1/2, cannabidiol
Protocol: (§1) An open label, randomized, single-dose, two-period, two-way crossover food-effect study was conducted on healthy subjects. […] Twenty-four (24) subjects were enrolled in the study and each were subjected to the fasted and fed treatment arms in separate periods followed by a 7-day wash-out period. For pharmacokinetic analysis, nominal time and default lambda-z selections were used. All below quantifiable limit values were set to zero and all subjects were included in the analysis.
(§2) Data from 13 subjects from the fasted treatment and 24 subject from the fed treatment were included in the pharmacokinetic and statistical analyses.

U251 cells = assay: Orthotopic mouse model of glioblastoma multiforme, U251 cells; assay type: in vivo, female athymic nu/nu mice
Protocol: All mice were injected intraperitoneally.
Survival between groups was compared using a Kaplan-Meier analysis and long-rank Mantel-Cox test or The Gehan-Breslow-Wilcoxon test. P values <0.05 defined statistical significance.

[1] = Pharmacokinetic food-effect study, single 20 mg/kg dose, healthy subjects (Example 17); conditions: for AUC / AUC(0-t) / AUC(0-inf) / Cmax / Tmax: human, in vivo, po, 20 mg/kg; for AUC: AUC0, cannabidiol; for Tmax: median (min, max)
Protocol: as §1, §2

[2] = cannabidiol, single 20 mg/kg oral dose of cannabidiol solution, fasted, mean
[3] = cannabidiol, single 20 mg/kg oral dose of cannabidiol solution, fed, mean

## C=C(C)[C@@H]1CCC(C)=C[C@H]1c1c(O)cc(CCCCC)cc1O [cannabidiol, (−)-trans-2-p-mentha-1,8-dien-3-yl-5-pentylresorcinol]
clinical; fasted
  CL/F: 1140 mL/min/kg
  Vd/F: 2680 L/kg
  half-life: 27.9 h
clinical; fed
  CL/F: 36.2 mL/min/kg
  Vd/F: 133 L/kg
  half-life: 42.3 h
U251 cells; 15 mg/kg cannabidiol with temozolomide 1.5 mg/kg
  effect on antitumor activity of temozolomide (in words): enhanced the antitumor activity of temozolomide
U251 cells; vehicle outlier included
  survival (in words): did not increase survival
[1]; [2]
  AUCextrap: 3.57%
  Clast: 0.867 ng/mL
  Tlast: 120.01 h
  λz: 0.0257 h⁻¹
  Cmax: 27.3 ng/mL
[1]; [3]
  AUCextrap: 3.84%
  Clast: 6.36 ng/mL
  Tlast: 120.00 h
  λz: 0.0165 h⁻¹
  Cmax: 1560 ng/mL
[1]; single 20 mg/kg oral, fasted, mean ± SD
  AUC: 0.325 ± 1.17 ng·h/mL
[1]; single 20 mg/kg oral, fed, mean ± SD
  AUC: 0.229 ± 0.636 ng·h/mL
[1]; AUC0-0.25, cannabidiol, single 20 mg/kg oral, fasted, mean ± SD
  AUC(0-t): 0.363 ± 1.31 ng·h/mL
[1]; AUC0-0.25, cannabidiol, single 20 mg/kg oral, fed, mean ± SD
  AUC(0-t): 0.498 ± 0.874 ng·h/mL
[1]; AUC0-0.5, cannabidiol, single 20 mg/kg oral, fasted, mean ± SD
  AUC(0-t): 0.584 ± 1.33 ng·h/mL
[1]; AUC0-0.5, cannabidiol, single 20 mg/kg oral, fed, mean ± SD
  AUC(0-t): 2.45 ± 3.38 ng·h/mL
[1]; AUC0-0.75, cannabidiol, single 20 mg/kg oral, fasted, mean ± SD
  AUC(0-t): 1.25 ± 1.34 ng·h/mL
[1]; AUC0-0.75, cannabidiol, single 20 mg/kg oral, fed, mean ± SD
  AUC(0-t): 7.48 ± 11.2 ng·h/mL
[1]; AUC0-1, cannabidiol, single 20 mg/kg oral, fasted, mean ± SD
  AUC(0-t): 1.93 ± 1.62 ng·h/mL
[1]; AUC0-1, cannabidiol, single 20 mg/kg oral, fed, mean ± SD
  AUC(0-t): 21.8 ± 40 ng·h/mL
[1]; AUC0-1.5, cannabidiol, single 20 mg/kg oral, fasted, mean ± SD
  AUC(0-t): 2.79 ± 2.14 ng·h/mL
[1]; AUC0-1.5, cannabidiol, single 20 mg/kg oral, fed, mean ± SD
  AUC(0-t): 128 ± 215 ng·h/mL
[1]; AUC0-2, cannabidiol, single 20 mg/kg oral, fasted, mean ± SD
  AUC(0-t): 4.14 ± 2.75 ng·h/mL
[1]; AUC0-2, cannabidiol, single 20 mg/kg oral, fed, mean ± SD
  AUC(0-t): 269 ± 381 ng·h/mL
[1]; AUC0-2.5, cannabidiol, single 20 mg/kg oral, fasted, mean ± SD
  AUC(0-t): 5.38 ± 4.09 ng·h/mL
[1]; AUC0-2.5, cannabidiol, single 20 mg/kg oral, fed, mean ± SD
  AUC(0-t): 424 ± 547 ng·h/mL
[1]; AUC0-3, cannabidiol, single 20 mg/kg oral, fasted, mean ± SD
  AUC(0-t): 5.88 ± 3.99 ng·h/mL
[1]; AUC0-3, cannabidiol, single 20 mg/kg oral, fed, mean ± SD
  AUC(0-t): 535 ± 675 ng·h/mL
[1]; AUC0-4, cannabidiol, single 20 mg/kg oral, fasted, mean ± SD
  AUC(0-t): 6.62 ± 3.85 ng·h/mL
[1]; AUC0-4, cannabidiol, single 20 mg/kg oral, fed, mean ± SD
  AUC(0-t): 812 ± 874 ng·h/mL
[1]; AUC0-6, cannabidiol, single 20 mg/kg oral, fasted, mean ± SD
  AUC(0-t): 12 ± 9.29 ng·h/mL
[1]; AUC0-6, cannabidiol, single 20 mg/kg oral, fed, mean ± SD
  AUC(0-t): 1090 ± 886 ng·h/mL
[1]; AUC0-8, cannabidiol, single 20 mg/kg oral, fasted, mean ± SD
  AUC(0-t): 22.9 ± 39.3 ng·h/mL
[1]; AUC0-8, cannabidiol, single 20 mg/kg oral, fed, mean ± SD
  AUC(0-t): 819 ± 590 ng·h/mL
[1]; AUC0-12, cannabidiol, single 20 mg/kg oral, fasted, mean ± SD
  AUC(0-t): 14.7 ± 10.2 ng·h/mL
[1]; AUC0-12, cannabidiol, single 20 mg/kg oral, fed, mean ± SD
  AUC(0-t): 372 ± 338 ng·h/mL
[1]; AUC0-16, cannabidiol, single 20 mg/kg oral, fasted, mean ± SD
  AUC(0-t): 9.76 ± 4.79 ng·h/mL
[1]; AUC0-16, cannabidiol, single 20 mg/kg oral, fed, mean ± SD
  AUC(0-t): 112 ± 133 ng·h/mL
[1]; AUC0-24, cannabidiol, single 20 mg/kg oral, fasted, mean ± SD
  AUC(0-t): 5.45 ± 2.76 ng·h/mL
[1]; AUC0-24, cannabidiol, single 20 mg/kg oral, fed, mean ± SD
  AUC(0-t): 34.3 ± 11.7 ng·h/mL
[1]; AUC0-36, cannabidiol, single 20 mg/kg oral, fasted, mean ± SD
  AUC(0-t): 5 ± 3.78 ng·h/mL
[1]; AUC0-36, cannabidiol, single 20 mg/kg oral, fed, mean ± SD
  AUC(0-t): 20.7 ± 5.11 ng·h/mL
[1]; AUC0-48, cannabidiol, single 20 mg/kg oral, fasted, mean ± SD
  AUC(0-t): 2.66 ± 2.4 ng·h/mL
[1]; AUC0-48, cannabidiol, single 20 mg/kg oral, fed, mean ± SD
  AUC(0-t): 15.5 ± 4.31 ng·h/mL
[1]; AUC0-72, cannabidiol, single 20 mg/kg oral, fasted, mean ± SD
  AUC(0-t): 1.73 ± 1.89 ng·h/mL
[1]; AUC0-72, cannabidiol, single 20 mg/kg oral, fed, mean ± SD
  AUC(0-t): 10.1 ± 3.42 ng·h/mL
[1]; AUC0-96, cannabidiol, single 20 mg/kg oral, fasted, mean ± SD
  AUC(0-t): 1.35 ± 1.73 ng·h/mL
[1]; AUC0-96, cannabidiol, single 20 mg/kg oral, fed, mean ± SD
  AUC(0-t): 7.86 ± 2.44 ng·h/mL
[1]; AUC0-120, cannabidiol, single 20 mg/kg oral, fasted, mean ± SD
  AUC(0-t): 0.867 ± 1.34 ng·h/mL
[1]; AUC0-120, cannabidiol, single 20 mg/kg oral, fed, mean ± SD
  AUC(0-t): 6.36 ± 2.24 ng·h/mL
[1]; AUC0-inf, cannabidiol, single 20 mg/kg oral dose of cannabidiol solution, fasted, mean
  AUC(0-inf): 360 ng·h/mL
[1]; AUC0-inf, cannabidiol, single 20 mg/kg oral dose of cannabidiol solution, fed, mean
  AUC(0-inf): 10100 ng·h/mL
[1]; AUC0-t, cannabidiol, single 20 mg/kg oral dose of cannabidiol solution, fasted, mean
  AUC(0-t): 466 ng·h/mL
[1]; AUC0-t, cannabidiol, single 20 mg/kg oral dose of cannabidiol solution, fed, mean
  AUC(0-t): 9650 ng·h/mL
[1]; cannabidiol, single 20 mg/kg oral dose of cannabidiol solution, fasted
  Tmax: 12 h
[1]; cannabidiol, single 20 mg/kg oral dose of cannabidiol solution, fed
  Tmax: 6 h
[1]; ln(AUC0-inf) Geometric Mean, cannabidiol, 20 mg/kg oral, Fasted, least squares geometric mean, period removed from model
  AUC(0-inf): 326 ng·h/mL
